# From US5866681A, “Thrombin receptor antagonists” (priority 1995, dated 1999)
# *1 amine or outer side, *2 acyl side, *3 side chain or, on linkers, in order; H or OH if unused. Where a SMILES comes first, the peptide text is derived from it. [ ]: non-standard residue; d: D form. The star is where a group is joined. X18 = CN(CC(c1ccccc1)c1ccccc1)[C@@H](Cc1ccccc1)C(=O)*; X10 = O=C([C@H](Cc1ccccc1)N(CCCc1ccccc1)[*:1])[*:2]; X14 = O=C([C@H](Cc1ccccc1)N(CC1CCCCC1)CC1CCCCC1)*; X23 = O=C([C@H](Cc1ccccc1)N(CCC1CCCC1)[*:1])[*:2]; X24 = CC(C)CCN([C@@H](Cc1ccccc1)C(=O)[*:2])[*:1]; X22 = CCCCCN([C@@H](CCc1ccccc1)C(=O)[*:2])[*:1]; X3 = CCCCCCCN([C@@H](Cc1ccccc1)C(=O)[*:2])[*:1]; X16 = CCCCCN([C@@H](Cc1ccccc1)C(=O)[*:2])[*:1]; X17 = CSCCCN([C@@H](Cc1ccccc1)C(=O)[*:2])[*:1]; X12 = CCCCCN([C@H](Cc1ccccc1)C(=O)[*:2])[*:1]; X15 = CCCCN([C@@H](Cc1ccccc1)C(=O)[*:2])[*:1]; X5 = CCCCCN(C)[C@@H](Cc1ccccc1)C(=O)*; Cha = N[C@@H](CC1CCCCC1)C(=O)O
# Biological target: T1, thrombin receptor (Homo sapiens, UniProt P25116)
# T1 construct: washed human platelets are prepared from blood drawn from healthy volunteers; endogenous in cells; host or cells: washed human platelets from healthy volunteers
# T1 sequence (P25116 22-425): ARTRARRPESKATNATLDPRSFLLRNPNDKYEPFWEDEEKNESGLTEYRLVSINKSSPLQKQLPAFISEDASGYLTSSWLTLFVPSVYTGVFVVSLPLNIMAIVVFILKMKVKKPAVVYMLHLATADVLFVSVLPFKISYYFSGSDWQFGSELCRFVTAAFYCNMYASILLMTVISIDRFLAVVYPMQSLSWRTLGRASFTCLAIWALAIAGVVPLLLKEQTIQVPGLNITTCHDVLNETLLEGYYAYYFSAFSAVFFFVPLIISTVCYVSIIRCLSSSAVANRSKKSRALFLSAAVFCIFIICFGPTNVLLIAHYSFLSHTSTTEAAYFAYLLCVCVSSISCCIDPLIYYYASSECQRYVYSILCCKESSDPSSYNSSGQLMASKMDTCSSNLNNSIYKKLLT
# Test: Platelet aggregation assay for thrombin receptor antagonist activity (washed human platelets stimulated with α-thrombin)
# Format: cell-based
# Conditions: not given
# Method: The compounds of the present invention may be tested for thrombin receptor antagonist activity by using a platelet aggregation assay. In this assay, washed human platelets are prepared from blood drawn from healthy volunteers who have not ingested any medications for two weeks prior to donation. Blood is drawn into 12.5% (vol/vol) ACD (85 mM sodium citrate, 111 mM dextrose, 71 mM citric acid) containing 0.1% (vol/vol) PGI2 (0.05 mg/mL PGI2, 100 mM Tris, pH 12). Platelet-rich plasma was obtained by centrifugation at 160×g for 20 minutes. The platelets were pelleted by centrifugation at 760×g for 10 minutes and resuspended in CGS (13 mM trisodium citrate, 120 mM sodium chloride, 30 mM dextrose, pH 7.0) containing 0.1% (vol/vol) PGI2, repelleted and resuspended in Tyrodes buffer (10 mM Hepes, 12 mM sodium bicarbonate, 138 mM sodium chloride, 5.5 mM glucose, 2.9 mM potassium chloride, 1.0 mM calcium chloride, pH 7.4) and stored at 37° C. Approximately 0.4-10 nM α-thrombin is used to stimulate platelet aggregation in control reactions which are monitored by aggregometry using an aggregometer. Candidate antagonists are added to the platelet mixture followed by the addition of thrombin in order to assess their ability to prevent thrombin-mediated aggregation.
# Platelet aggregation can also be measured with washed platelets in 96-well microtiter plates as described in Fratantoni, J. C. et al., Am. J. Clin. Pathol. 94:613-617 (1990). The ability of the antagonists to block the thrombin receptor was assessed in this assay using various concentrations of antagonists. The concentration at which 50% inhibition of platelet aggregation is achieved is defined as IC50.
row,SMILES,IC50 [µM]
1,N=C(N)NCCC[C@H](NC(=O)[C@H](CC1CCCCC1)NC(=O)[C@H](CC1CCCCC1)NC(=O)[C@H](Cc1ccccc1)NCCC1CCCC1)C(=O)N[C@@H](CCCCN)C(=O)N1CCC[C@H]1C(=O)N[C@@H](CC(N)=O)C(=O)N[C@@H](CC(=O)O)C(=O)N[C@@H](CCCCN)C(N)=O [Compound 6] (H-[X23][Cha][Cha]RKPNDK-NH2),10
2,N=C(N)NCCC[C@H](NC(=O)[C@H](CC1CCCCC1)NC(=O)[C@H](CC1CCCCC1)NC(=O)[C@H](Cc1ccccc1)NCCCc1ccccc1)C(=O)N[C@@H](CCCCN)C(=O)N1CCC[C@H]1C(=O)N[C@@H](CC(N)=O)C(=O)N[C@@H](CC(=O)O)C(=O)N[C@@H](CCCCN)C(N)=O [Compound 7] (H-[X10][Cha][Cha]RKPNDK-NH2),5
3,CCCCCN[C@@H](Cc1ccccc1)C(=O)N[C@@H](CC1CCCCC1)C(=O)N[C@@H](CC1CCCCC1)C(=O)N[C@@H](CCCNC(=N)N)C(=O)N[C@@H](CCCCN)C(N)=O [Compound 14] (H-[X16][Cha][Cha]RK-NH2),5
4,CCCCCN(C)[C@@H](Cc1ccccc1)C(=O)N[C@@H](CC1CCCCC1)C(=O)N[C@@H](CC1CCCCC1)C(=O)N[C@@H](CCCNC(=N)N)C(=O)N[C@@H](CCCCN)C(N)=O [Compound 15] (X5-[Cha][Cha]RK-NH2),10
5,CN(CC(c1ccccc1)c1ccccc1)[C@@H](Cc1ccccc1)C(=O)N[C@@H](CC1CCCCC1)C(=O)N[C@@H](CC1CCCCC1)C(=O)N[C@@H](CCCNC(=N)N)C(=O)N[C@@H](CCCCN)C(N)=O [Compound 16] (X18-[Cha][Cha]RK-NH2),10
6,CCCCCN[C@H](Cc1ccccc1)C(=O)N[C@@H](CC1CCCCC1)C(=O)N[C@@H](CC1CCCCC1)C(=O)N[C@@H](CCCNC(=N)N)C(=O)N[C@@H](CCCCN)C(N)=O [Compound 22] (H-[X12][Cha][Cha]RK-NH2),25

# Same assay, conditions: washed human platelets, thrombin-mediated aggregation; read-out: IC50 (concentration at which 50% inhibition of platelet aggregation is achieved)
row,IC50 [µM],SMILES
1,5,CC(C)CCN[C@@H](Cc1ccccc1)C(=O)N[C@@H](CC1CCCCC1)C(=O)N[C@@H](CC1CCCCC1)C(=O)N[C@@H](CCCNC(=N)N)C(=O)N[C@@H](CCCCN)C(=O)N1CCC[C@H]1C(=O)N[C@@H](CC(N)=O)C(=O)N[C@@H](CC(=O)O)C(=O)N[C@@H](CCCCN)C(N)=O [Compound 1] (H-[X24][Cha][Cha]RKPNDK-NH2)
2,10,CSCCCN[C@@H](Cc1ccccc1)C(=O)N[C@@H](CC1CCCCC1)C(=O)N[C@@H](CC1CCCCC1)C(=O)N[C@@H](CCCNC(=N)N)C(=O)N[C@@H](CCCCN)C(=O)N1CCC[C@H]1C(=O)N[C@@H](CC(N)=O)C(=O)N[C@@H](CC(=O)O)C(=O)N[C@@H](CCCCN)C(N)=O [Compound 2] (H-[X17][Cha][Cha]RKPNDK-NH2)
3,10,CCCCCCCN[C@@H](Cc1ccccc1)C(=O)N[C@@H](CC1CCCCC1)C(=O)N[C@@H](CC1CCCCC1)C(=O)N[C@@H](CCCNC(=N)N)C(=O)N[C@@H](CCCCN)C(=O)N1CCC[C@H]1C(=O)N[C@@H](CC(N)=O)C(=O)N[C@@H](CC(=O)O)C(=O)N[C@@H](CCCCN)C(N)=O [Compound 3] (H-[X3][Cha][Cha]RKPNDK-NH2)
4,5,CCCCN[C@@H](Cc1ccccc1)C(=O)N[C@@H](CC1CCCCC1)C(=O)N[C@@H](CC1CCCCC1)C(=O)N[C@@H](CCCNC(=N)N)C(=O)N[C@@H](CCCCN)C(=O)N1CCC[C@H]1C(=O)N[C@@H](CC(N)=O)C(=O)N[C@@H](CC(=O)O)C(=O)N[C@@H](CCCCN)C(N)=O [Compound 4] (H-[X15][Cha][Cha]RKPNDK-NH2)
5,2.5,CCCCCN[C@@H](Cc1ccccc1)C(=O)N[C@@H](CC1CCCCC1)C(=O)N[C@@H](CC1CCCCC1)C(=O)N[C@@H](CCCNC(=N)N)C(=O)N[C@@H](CCCCN)C(=O)N1CCC[C@H]1C(=O)N[C@@H](CC(N)=O)C(=O)N[C@@H](CC(=O)O)C(=O)N[C@@H](CCCCN)C(N)=O [Compound 5] (H-[X16][Cha][Cha]RKPNDK-NH2)
6,5,N=C(N)NCCC[C@H](NC(=O)[C@H](CC1CCCCC1)NC(=O)[C@H](CC1CCCCC1)NC(=O)[C@H](Cc1ccccc1)N(CC1CCCCC1)CC1CCCCC1)C(=O)N[C@@H](CCCCN)C(=O)N1CCC[C@H]1C(=O)N[C@@H](CC(N)=O)C(=O)N[C@@H](CC(=O)O)C(=O)N[C@@H](CCCCN)C(N)=O [Compound 8] (X14-[Cha][Cha]RKPNDK-NH2)
7,15,CCCCCN[C@@H](CCc1ccccc1)C(=O)N[C@@H](CC1CCCCC1)C(=O)N[C@@H](CC1CCCCC1)C(=O)N[C@@H](CCCNC(=N)N)C(=O)N[C@@H](CCCCN)C(N)=O [Compound 9] (H-[X22][Cha][Cha]RK-NH2)
